Assay results published in patent US9050341B2, “Methods of treating drug resistant and other tumors by administering 6,7-dialkoxy quinazoline derivatives” (NATCO PHARMA LIMITED, priority 2009, dated 2015).

Legend:
Experiment in all cases: KinomeScan kinase profiling
Type in all cases: binding
ADCK3 = biological target: T1, ADCK3 (Homo sapiens, UniProt Q8NI60)
T1 construct: host or cells: E. coli host derived from BL21 (T7 phage lysate)
Excerpt: (§1) The kinases were ABL1(F317L), ABL1(H396P), ABL1(Q252H), ABL1(Y253F), ADCK3, ADCK4, ALK, ARK5, AXL, BLK, BRSK2, CDK7, CIT, CLK4, CSNK1D, CSNK1E, DAPK1, DAPK3, DCAMKL3, DMPK, EGFR, EGFR(E746-A750DEL), EGFR(G719C), EGFR(G719S), EGFR(L747-E749DEL, A750P), EGFR(L747-S752 DEL, P753S), EGFR(L747-T751DEL, Sin), EGFR(L858R), EGFR(L861Q), EGFR(S752-I759DEL), EPHA5, EPHA6, ERBB2, ERBB4, ERK3, ERK4, FGR, FLT3(D835H), FLT3(D835Y), FLT3(ITD), FLT3(N841 I), FRK, GAK, GCN2(KIN.DOM.2, S808G), HCK, IRAK3, JAK1(KIN.DOM.1), KIT, KIT(D816V), KIT(V559D), KIT(V559D,T670I), LCK, LOK, LTK, LYN, MAP3K3, MAP4K4, MAP4K5, MET, MINK, MKNK1, MKNK2, MST4, MYLK2, PDGFRB, PIM3, PKN2, PRKD1, PRKD2, PRKD3, PRKG1, RIPK2, RPS6KA4(KIN.DOM.2), SIK2, SLK, SNARK, SRC, STK36, TNIK, TNNI3K, TYK2(KIN.DOM.2).
(§2) Kinase assays: Assays were performed as described in Fabian et al. (2005) Nature Biotechnology, vol. 23, p. 329. Kinase-tagged T7 phage strains were grown in parallel in 24 or 96-well blocks in an E. coli host derived from the BL21 strain. E. coli were grown to log-phase and infected with T7 phage from a frozen stock (multiplicity of infection ˜0.1) and incubated with shaking at 32° C. until lysis (˜90 minutes). The lysates were centrifuged and filtered to remove cell debris. […] The liganded beads were blocked with excess biotin and washed with blocking buffer (SeaBlock (Pierce), 1% BSA, 0.05% Tween 20, 1 mM DTT) to remove unbound ligand and to reduce non-specific phage binding.
(§3) Test compounds were prepared as 40× stocks in DMSO and diluted into the aqueous environment. 2.5% DMSO was added to control assays lacking a test compound. All reactions were performed in polystyrene 96-well plates that had been pretreated with blocking buffer in a final volume of 0.04 ml. […] The phage titer in the eluates was measured by quantitative PCR.

CAMKK2 = biological target: T2, CAMKK2 (Homo sapiens, UniProt Q96RR4)
T2 construct: host or cells: T7 phage in E. coli (BL21-derived)
Excerpt: as §1, §2, §3

FAK = biological target: T3, FAK (Homo sapiens, UniProt Q05397)
T3 construct: host or cells: E. coli host derived from BL21, T7 phage lysate
Excerpt: as §1, §2, §3

TNK2 = biological target: T4, TNK2 (Homo sapiens, UniProt Q07912)
T4 construct: purchased Ambit Biosciences Corp (KinomeScan); host or cells: E. coli host derived from the BL21 strain (T7 phage lysate)
T4 sequence (Q07912 whole entry): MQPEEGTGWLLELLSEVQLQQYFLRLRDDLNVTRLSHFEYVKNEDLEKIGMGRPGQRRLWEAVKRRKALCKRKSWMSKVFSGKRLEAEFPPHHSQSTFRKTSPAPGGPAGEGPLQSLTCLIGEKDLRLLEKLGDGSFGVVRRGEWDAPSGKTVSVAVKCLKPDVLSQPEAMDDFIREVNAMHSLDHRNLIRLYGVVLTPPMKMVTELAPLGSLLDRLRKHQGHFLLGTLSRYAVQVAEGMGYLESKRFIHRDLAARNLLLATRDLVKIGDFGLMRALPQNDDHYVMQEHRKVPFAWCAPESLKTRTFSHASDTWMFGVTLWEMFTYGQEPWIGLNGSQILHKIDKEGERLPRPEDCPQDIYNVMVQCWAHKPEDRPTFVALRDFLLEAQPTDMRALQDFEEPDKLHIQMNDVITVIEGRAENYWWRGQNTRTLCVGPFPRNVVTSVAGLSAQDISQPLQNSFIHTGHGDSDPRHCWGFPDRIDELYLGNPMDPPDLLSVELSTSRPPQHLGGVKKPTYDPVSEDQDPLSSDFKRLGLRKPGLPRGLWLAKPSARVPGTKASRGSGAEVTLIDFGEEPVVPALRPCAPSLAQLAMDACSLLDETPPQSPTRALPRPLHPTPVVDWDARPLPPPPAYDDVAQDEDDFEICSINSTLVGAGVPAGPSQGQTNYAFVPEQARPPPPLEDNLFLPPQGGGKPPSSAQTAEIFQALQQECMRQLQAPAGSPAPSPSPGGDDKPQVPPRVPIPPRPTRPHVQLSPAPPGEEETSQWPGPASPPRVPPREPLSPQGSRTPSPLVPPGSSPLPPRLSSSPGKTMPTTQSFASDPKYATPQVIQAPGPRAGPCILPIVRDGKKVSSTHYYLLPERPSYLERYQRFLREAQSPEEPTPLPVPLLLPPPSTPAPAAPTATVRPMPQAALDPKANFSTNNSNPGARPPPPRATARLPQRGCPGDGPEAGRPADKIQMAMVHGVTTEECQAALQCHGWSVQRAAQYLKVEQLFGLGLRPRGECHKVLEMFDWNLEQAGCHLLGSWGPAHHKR
Excerpt: as §1, §2, §3

BLK = biological target: T5, BLK (Homo sapiens, UniProt P51451)
T5 construct: purchased Ambit Biosciences Corp (KinomeScan); host or cells: E. coli host derived from the BL21 strain, T7 phage
T5 sequence (P51451 whole entry): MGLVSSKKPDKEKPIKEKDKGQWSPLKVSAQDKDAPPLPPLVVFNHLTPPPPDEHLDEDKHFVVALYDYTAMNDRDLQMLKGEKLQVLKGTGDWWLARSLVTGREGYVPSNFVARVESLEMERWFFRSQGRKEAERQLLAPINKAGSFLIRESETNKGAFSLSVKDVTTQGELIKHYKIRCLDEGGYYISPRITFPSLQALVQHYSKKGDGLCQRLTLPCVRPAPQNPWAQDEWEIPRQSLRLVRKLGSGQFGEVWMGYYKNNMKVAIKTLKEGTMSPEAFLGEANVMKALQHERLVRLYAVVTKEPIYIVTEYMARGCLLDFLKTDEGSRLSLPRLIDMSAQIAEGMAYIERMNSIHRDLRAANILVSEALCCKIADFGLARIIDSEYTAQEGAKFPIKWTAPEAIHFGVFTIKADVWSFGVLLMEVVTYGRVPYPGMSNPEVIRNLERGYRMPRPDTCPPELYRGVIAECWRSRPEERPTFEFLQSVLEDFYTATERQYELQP
Excerpt: as §1, §2, §3

EGFR (L858R) = biological target: T6, EGFR (L858R) (Homo sapiens, UniProt P00533, L858R)
T6 construct: host or cells: E. coli host derived from BL21, T7 phage lysate
Excerpt: as §1, §2, §3

CAMK2D = biological target: T7, CAMK2D (Homo sapiens, UniProt Q13557)
T7 construct: purchased Ambit Biosciences Corp (KinomeScan); host or cells: E. coli host derived from the BL21 strain, T7 phage
T7 sequence (Q13557 whole entry): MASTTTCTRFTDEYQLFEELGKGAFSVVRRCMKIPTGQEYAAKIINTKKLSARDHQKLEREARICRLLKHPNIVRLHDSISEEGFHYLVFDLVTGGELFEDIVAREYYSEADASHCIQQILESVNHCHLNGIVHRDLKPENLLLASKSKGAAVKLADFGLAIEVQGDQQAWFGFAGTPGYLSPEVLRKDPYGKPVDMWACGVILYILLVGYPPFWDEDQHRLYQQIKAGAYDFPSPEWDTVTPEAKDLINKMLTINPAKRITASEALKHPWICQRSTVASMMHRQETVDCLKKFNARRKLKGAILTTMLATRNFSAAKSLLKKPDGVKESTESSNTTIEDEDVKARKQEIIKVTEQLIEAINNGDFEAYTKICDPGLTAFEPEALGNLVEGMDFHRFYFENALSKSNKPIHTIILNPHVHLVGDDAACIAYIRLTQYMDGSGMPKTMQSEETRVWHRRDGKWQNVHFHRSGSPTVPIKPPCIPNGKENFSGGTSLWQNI
Excerpt: as §1, §2, §3

ERK8 = biological target: T8, ERK8 (Homo sapiens, UniProt Q8TD08)
T8 construct: host or cells: E. coli host derived from BL21, T7 phage lysate
T8 sequence (Q8TD08 whole entry): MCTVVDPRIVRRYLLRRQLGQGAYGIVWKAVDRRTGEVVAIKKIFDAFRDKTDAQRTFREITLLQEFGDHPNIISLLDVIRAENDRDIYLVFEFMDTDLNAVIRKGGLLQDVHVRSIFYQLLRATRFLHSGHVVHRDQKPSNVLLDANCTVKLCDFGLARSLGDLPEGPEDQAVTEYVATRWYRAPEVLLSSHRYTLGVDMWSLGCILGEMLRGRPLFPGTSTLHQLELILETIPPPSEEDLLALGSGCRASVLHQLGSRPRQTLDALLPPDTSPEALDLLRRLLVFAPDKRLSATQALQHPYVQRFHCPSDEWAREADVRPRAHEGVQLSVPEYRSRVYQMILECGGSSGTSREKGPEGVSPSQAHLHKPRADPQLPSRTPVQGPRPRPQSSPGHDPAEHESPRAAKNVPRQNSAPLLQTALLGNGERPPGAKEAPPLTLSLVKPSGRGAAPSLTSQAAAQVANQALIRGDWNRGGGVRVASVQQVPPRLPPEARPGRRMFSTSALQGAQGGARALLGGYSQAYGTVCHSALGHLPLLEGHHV
Excerpt: as §1, §2, §3

MAP4K3 = biological target: T9, MAP4K3 (Homo sapiens, UniProt Q8IVH8)
T9 construct: host or cells: E. coli derived from BL21, infected with T7 phage
Excerpt: as §1, §2, §3

CDK3 = biological target: T10, CDK3 (Homo sapiens, UniProt Q00526)
T10 construct: host or cells: T7 phage in E. coli (BL21-derived)
T10 sequence (Q00526 whole entry): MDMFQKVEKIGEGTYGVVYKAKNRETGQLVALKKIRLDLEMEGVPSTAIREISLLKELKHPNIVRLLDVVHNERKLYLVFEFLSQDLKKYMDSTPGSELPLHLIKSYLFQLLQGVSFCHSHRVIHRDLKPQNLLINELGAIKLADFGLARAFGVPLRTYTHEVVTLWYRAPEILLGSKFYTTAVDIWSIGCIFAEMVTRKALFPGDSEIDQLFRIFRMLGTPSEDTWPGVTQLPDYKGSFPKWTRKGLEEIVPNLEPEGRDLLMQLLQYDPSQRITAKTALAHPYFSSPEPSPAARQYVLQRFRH
Excerpt: as §1, §2, §3

CAMK1D = biological target: T11, CAMK1D (Homo sapiens, UniProt Q8IU85)
T11 construct: purchased Ambit Biosciences Corp (KinomeScan); host or cells: E. coli host derived from the BL21 strain, T7 phage
T11 sequence (Q8IU85 whole entry): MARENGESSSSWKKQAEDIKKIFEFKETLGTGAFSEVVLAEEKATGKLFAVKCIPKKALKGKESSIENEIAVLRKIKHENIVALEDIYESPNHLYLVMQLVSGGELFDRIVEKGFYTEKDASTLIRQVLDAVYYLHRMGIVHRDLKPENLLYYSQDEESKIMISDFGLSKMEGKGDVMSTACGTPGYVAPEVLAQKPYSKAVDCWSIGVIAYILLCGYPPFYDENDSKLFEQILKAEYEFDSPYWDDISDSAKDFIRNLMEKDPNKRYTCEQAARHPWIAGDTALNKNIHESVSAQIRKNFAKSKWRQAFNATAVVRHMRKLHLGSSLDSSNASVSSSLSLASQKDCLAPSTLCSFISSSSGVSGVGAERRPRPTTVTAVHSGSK
Excerpt: as §1, §2, §3

TTK = biological target: T12, TTK (Homo sapiens, UniProt P33981)
T12 construct: purchased Ambit Biosciences Corp (KinomeScan); host or cells: E. coli host derived from the BL21 strain (T7 phage lysate)
Excerpt: as §1, §2, §3

PHKG1 = biological target: T13, PHKG1 (Homo sapiens, UniProt Q16816)
T13 construct: host or cells: E. coli host derived from the BL21 strain, infected with T7 phage
Excerpt: as §1, §2, §3

CLK2 = biological target: T14, CLK2 (Homo sapiens, UniProt P49760)
T14 construct: host or cells: T7 phage in E. coli (BL21-derived)
Excerpt: as §1, §2, §3

PIM3 = biological target: T15, PIM3 (Homo sapiens, UniProt Q86V86)
T15 construct: purchased Ambit Biosciences Corp (KinomeScan); host or cells: E. coli host derived from BL21, infected with T7 phage
Excerpt: as §1, §2, §3

LIMK1 = biological target: T16, LIMK1 (Homo sapiens, UniProt P53667)
T16 construct: host or cells: T7 phage in E. coli host derived from BL21
Excerpt: as §1, §2, §3

PAK4 = biological target: T17, PAK4 (Homo sapiens, UniProt O96013)
T17 construct: host or cells: E. coli host derived from the BL21 strain, infected with T7 phage
T17 sequence (O96013 whole entry): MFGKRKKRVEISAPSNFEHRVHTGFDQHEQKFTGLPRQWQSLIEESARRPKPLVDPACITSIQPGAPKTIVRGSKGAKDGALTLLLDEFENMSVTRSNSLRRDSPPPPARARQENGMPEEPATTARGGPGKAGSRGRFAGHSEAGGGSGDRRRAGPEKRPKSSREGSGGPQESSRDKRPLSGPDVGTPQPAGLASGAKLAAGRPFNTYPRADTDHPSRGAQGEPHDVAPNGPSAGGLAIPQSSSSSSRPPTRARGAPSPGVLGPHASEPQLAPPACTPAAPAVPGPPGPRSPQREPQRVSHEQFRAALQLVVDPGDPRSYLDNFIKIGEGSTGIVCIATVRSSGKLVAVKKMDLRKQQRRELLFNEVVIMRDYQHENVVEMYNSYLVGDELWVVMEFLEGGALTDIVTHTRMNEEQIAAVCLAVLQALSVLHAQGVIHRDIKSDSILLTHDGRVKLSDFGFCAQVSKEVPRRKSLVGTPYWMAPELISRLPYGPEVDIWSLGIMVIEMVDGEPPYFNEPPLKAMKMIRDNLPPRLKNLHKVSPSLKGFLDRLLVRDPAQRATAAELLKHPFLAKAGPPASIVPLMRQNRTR
Excerpt: as §1, §2, §3

PDGFRA = biological target: T18, PDGFRA (Homo sapiens, UniProt P16234)
T18 construct: host or cells: E. coli host derived from the BL21 strain, infected with T7 phage
Excerpt: as §1, §2, §3

PHKG2 = biological target: T19, PHKG2 (Homo sapiens, UniProt P15735)
T19 construct: host or cells: E. coli host derived from the BL21 strain, infected with T7 phage
Excerpt: as §1, §2, §3

PCTK1 = biological target: T20, PCTK1 (Homo sapiens, UniProt Q00536)
T20 construct: host or cells: E. coli host derived from the BL21 strain, infected with T7 phage
Excerpt: as §1, §2, §3

MKNK2 = biological target: T21, MKNK2 (Homo sapiens, UniProt Q9HBH9)
T21 construct: host or cells: T7 phage in E. coli host derived from BL21
T21 sequence (Q9HBH9 whole entry): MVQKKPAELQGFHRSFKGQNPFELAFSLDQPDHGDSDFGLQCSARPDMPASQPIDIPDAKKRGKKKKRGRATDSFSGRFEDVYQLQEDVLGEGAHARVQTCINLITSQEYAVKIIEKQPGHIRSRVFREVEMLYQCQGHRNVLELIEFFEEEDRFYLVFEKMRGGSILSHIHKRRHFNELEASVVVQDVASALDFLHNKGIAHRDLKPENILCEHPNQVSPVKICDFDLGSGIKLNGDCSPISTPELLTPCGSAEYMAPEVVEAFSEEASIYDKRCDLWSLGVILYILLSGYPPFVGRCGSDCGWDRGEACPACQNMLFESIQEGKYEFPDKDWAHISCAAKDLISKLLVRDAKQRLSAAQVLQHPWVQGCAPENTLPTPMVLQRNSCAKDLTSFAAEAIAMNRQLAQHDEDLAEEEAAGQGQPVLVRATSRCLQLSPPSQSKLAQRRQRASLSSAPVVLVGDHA
Excerpt: as §1, §2, §3

PIM2 = biological target: T22, PIM2 (Homo sapiens, UniProt Q9P1W9)
T22 construct: purchased Ambit Biosciences Corp (KinomeScan); host or cells: E. coli host derived from BL21, infected with T7 phage
T22 sequence (Q9P1W9 whole entry): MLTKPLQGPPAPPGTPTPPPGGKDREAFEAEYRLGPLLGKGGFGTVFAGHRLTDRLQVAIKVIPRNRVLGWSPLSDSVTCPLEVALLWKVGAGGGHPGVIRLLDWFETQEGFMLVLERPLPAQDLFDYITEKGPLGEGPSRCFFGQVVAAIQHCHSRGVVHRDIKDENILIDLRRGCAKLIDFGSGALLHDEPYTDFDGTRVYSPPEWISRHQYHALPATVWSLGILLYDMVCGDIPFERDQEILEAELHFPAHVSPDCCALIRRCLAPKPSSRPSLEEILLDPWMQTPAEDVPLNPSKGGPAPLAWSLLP
Excerpt: as §1, §2, §3

AURKB = biological target: T23, AURKB (Homo sapiens, UniProt Q96GD4)
T23 construct: purchased Ambit Biosciences Corp (KinomeScan); host or cells: E. coli host derived from the BL21 strain, T7 phage
T23 sequence (Q96GD4 whole entry): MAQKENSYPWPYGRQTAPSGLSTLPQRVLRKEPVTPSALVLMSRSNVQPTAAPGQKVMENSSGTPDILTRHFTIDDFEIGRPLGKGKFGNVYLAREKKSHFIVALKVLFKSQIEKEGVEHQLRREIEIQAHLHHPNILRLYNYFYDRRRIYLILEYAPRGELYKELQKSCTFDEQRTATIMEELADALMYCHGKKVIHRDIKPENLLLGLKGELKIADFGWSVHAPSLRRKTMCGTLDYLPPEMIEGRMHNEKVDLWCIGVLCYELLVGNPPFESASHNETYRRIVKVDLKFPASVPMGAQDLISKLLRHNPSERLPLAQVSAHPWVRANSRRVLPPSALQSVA
Excerpt: as §1, §2, §3

MAP3K4 = biological target: T24, MAP3K4 (Homo sapiens, UniProt Q9Y6R4)
T24 construct: host or cells: E. coli derived from BL21, infected with T7 phage
Excerpt: as §1, §2, §3

C#Cc1cccc(Nc2ncnc3cc(OC)c(OCCCN4CCOCC4)cc23)c1 [NRC-2694, N-(3-ethylnylphenyl)-7-methoxy-6-[3-(4-morpholinyl)propoxy]-4-quinazolinamine]
% Ctrl @ 10000 nM (ADCK3): 14 % Ctrl | % Ctrl @ 10000 nM (CAMKK2): 60 % Ctrl | % Ctrl @ 10000 nM (FAK): 85 % Ctrl | % Ctrl @ 10000 nM (TNK2): 37 % Ctrl | % Ctrl @ 10000 nM (BLK): 4.4 % Ctrl | % Ctrl @ 10000 nM (EGFR (L858R)): 0 % Ctrl | % Ctrl @ 10000 nM (CAMK2D): 35 % Ctrl | % Ctrl @ 10000 nM (ERK8): 62 % Ctrl | % Ctrl @ 10000 nM (MAP4K3): 52 % Ctrl | % Ctrl @ 10000 nM (CDK3): 91 % Ctrl | % Ctrl @ 10000 nM (CAMK1D): 83 % Ctrl | % Ctrl @ 10000 nM (TTK): 48 % Ctrl | % Ctrl @ 10000 nM (PHKG1): 50 % Ctrl | % Ctrl @ 10000 nM (CLK2): 64 % Ctrl | % Ctrl @ 10000 nM (PIM3): 23 % Ctrl | % Ctrl @ 10000 nM (LIMK1): 62 % Ctrl | % Ctrl @ 10000 nM (PAK4): 80 % Ctrl | % Ctrl @ 10000 nM (PDGFRA): 50 % Ctrl | % Ctrl @ 10000 nM (PHKG2): 59 % Ctrl | % Ctrl @ 10000 nM (PCTK1): 100 % Ctrl | % Ctrl @ 10000 nM (MKNK2): 16 % Ctrl | % Ctrl @ 10000 nM (PIM2): 83 % Ctrl | % Ctrl @ 10000 nM (AURKB): 56 % Ctrl | % Ctrl @ 10000 nM (MAP3K4): 53 % Ctrl
